Measurements from patent publication US20080188654A1, “Compounds for treatment of inflammation, diabetes and related disorders” (Theracos, Inc., priority 2001, published 2008).
Blank lines part the entries; values can stand above or below the compound they belong to.

Tests used:
TNF-alpha [1] = experiment: Inhibition of LPS-induced TNF-alpha release by human monocytes; assay type: cell-based; details: Monocyte, read-out: Percent Inhibition of TNF-alpha Release
p44/42 MAP kinase = experiment: Inhibition of phosphorylation of p44/42 MAP kinase in RAW 264.7 gamma NO(-) cells (Western blot); assay type: cell-based, mouse; details: for inhibition of LPS-induced phosphorylation of p44/42 MAP kinase: 10 ng/ml LPS
[2] = molecular target: T1, PDE3 partially purified from human platelets (Homo sapiens, UniProt Q14432); experiment: Inhibition of PDE3 enzyme activity; assay type: biochemical; details: read-out: Percent Inhibition of Enzyme Activity
T1 construct: PDE3 partially purified from human platelets were used; from tissue; host or cells: human platelets (partially purified enzyme)

[3] = tested on: mouse mesenteric lymph node cells; experiment: Inhibition of anti-CD3/anti-CD28 stimulated lymphocyte proliferation; assay type: cell-based
[4] = tested on: PDE4 partially purified from human U-937 promonocytic cells; experiment: Inhibition of PDE4 enzyme activity; assay type: biochemical
[5] = tested on: human elutriated monocytes; experiment: Cell viability of human monocytes (MTS/PMS assay); assay type: cell-based; details: 30 μM, 20 h
IL-6 = experiment: Inhibition of LPS-induced IL-6 production in RAW264.7 cells (ELISA); assay type: cell-based, mouse
TNF-alpha [6] = experiment: Inhibition of LPS-induced TNF-alpha production in RAW264.7 cells (ELISA); assay type: cell-based, mouse
[7] = tested on: 3T3-L1 differentiated adipocytes; experiment: Glucose uptake in 3T3-L1 adipocytes (14C-deoxyglucose); assay type: cell-based, mouse; details: different concentrations, 48 hours; percentage of basal; FIG. 1
ob/ob mice [8] = experiment: Lipid-lowering effects in ob/ob mice; assay type: in vivo, mouse; details: 10 mg/kg daily oral, day 8, versus vehicle, p<0.05
COX-1 = COX-1 production in LPS-stimulated RAW264.7 cells (Western blot); assay type: cell-based, mouse; details: FIG. 8
iNOS = experiment: Inhibition of LPS-induced iNOS production in RAW264.7 cells (Western blot); assay type: cell-based, mouse; details: 10, 30 or 100 μM; FIG. 8
IL-1 beta = experiment: Inhibition of LPS-induced IL-1 beta production in RAW264.7 cells (ELISA); assay type: cell-based, mouse
COX-2 = experiment: Inhibition of LPS-induced COX-2 production in RAW264.7 cells (Western blot); assay type: cell-based, mouse; details: LPS-stimulated cells; FIG. 8
ob/ob mice [9] = experiment: Glucose-lowering effect in ob/ob mice; assay type: in vivo, mouse; details: 10 mg/kg daily oral, p<0.05
3T3-L1 adipocytes = experiment: Insulin-stimulated glucose uptake in 3T3-L1 adipocytes; assay type: cell-based, mouse; details: 5 μM, 48 hours; compared to vehicle; FIG. 2
TNF-alpha [10] = experiment: Inhibition of LPS-induced TNF-alpha production in mice; assay type: in vivo, mouse; details: for Percent TNF Production (Mean ± SEM): plasma 1 h after LPS, vehicle = 100%, p < 0.05; for inhibition of LPS-induced TNF-alpha production in mice: 50 or 100 mg/kg oral
DBA/1J mice = experiment: Collagen-induced arthritis in mice; assay type: in vivo, mouse
[11] = high dose, 100 mg/kg oral twice daily 14 days

T1 sequence (Q14432 whole entry): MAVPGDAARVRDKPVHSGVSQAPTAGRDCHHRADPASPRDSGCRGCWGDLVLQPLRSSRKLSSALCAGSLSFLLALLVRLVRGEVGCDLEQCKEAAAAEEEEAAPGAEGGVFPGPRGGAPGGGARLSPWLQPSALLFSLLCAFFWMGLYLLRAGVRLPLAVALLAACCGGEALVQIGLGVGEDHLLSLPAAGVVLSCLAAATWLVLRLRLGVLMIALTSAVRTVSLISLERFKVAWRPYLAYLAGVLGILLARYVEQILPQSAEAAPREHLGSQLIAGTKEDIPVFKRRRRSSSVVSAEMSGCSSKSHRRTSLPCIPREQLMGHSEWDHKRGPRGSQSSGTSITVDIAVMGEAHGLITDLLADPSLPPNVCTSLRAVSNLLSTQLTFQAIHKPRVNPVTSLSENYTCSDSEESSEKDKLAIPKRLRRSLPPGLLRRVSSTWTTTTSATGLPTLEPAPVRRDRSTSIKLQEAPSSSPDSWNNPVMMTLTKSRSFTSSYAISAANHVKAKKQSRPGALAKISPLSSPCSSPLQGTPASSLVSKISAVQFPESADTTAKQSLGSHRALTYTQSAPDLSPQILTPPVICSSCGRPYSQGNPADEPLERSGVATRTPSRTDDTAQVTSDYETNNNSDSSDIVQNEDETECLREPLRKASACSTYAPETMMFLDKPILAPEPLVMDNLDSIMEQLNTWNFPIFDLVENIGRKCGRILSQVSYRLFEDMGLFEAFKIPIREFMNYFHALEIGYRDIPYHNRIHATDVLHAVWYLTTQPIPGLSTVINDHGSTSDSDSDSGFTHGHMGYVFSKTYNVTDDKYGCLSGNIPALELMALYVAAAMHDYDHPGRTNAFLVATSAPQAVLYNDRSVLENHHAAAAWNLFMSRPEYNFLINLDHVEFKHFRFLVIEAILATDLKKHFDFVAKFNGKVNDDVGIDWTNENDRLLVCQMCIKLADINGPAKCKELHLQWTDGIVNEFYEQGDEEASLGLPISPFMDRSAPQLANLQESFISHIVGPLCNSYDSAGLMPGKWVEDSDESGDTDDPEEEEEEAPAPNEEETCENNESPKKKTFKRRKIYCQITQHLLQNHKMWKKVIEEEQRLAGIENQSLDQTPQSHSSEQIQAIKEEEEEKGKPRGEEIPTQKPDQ

Compound: CN(C)C(=O)/C(=C/c1cccnc1)c1ccc(Oc2ccc(CC(C(N)=O)C(N)=O)cc2)cc1 [Compound 71, 2-{4-[4-(1-dimethylcarbamoyl-2-pyridin-3-ylvinyl)-phenoxy]-benzyl}-malonamide]
inhibition at 0.3 µM (TNF-alpha [1]): 20%
inhibition at 3 µM (TNF-alpha [1]): 47%
inhibition at 30 µM (TNF-alpha [1]): 65%

Compound: COc1cc(/C=C(/C(=O)N(C)C)c2ccc(NC(=O)c3ccccc3)cc2)cc(OC)c1 [Compound 67, N-{4-[2-(3,5-dimethoxyphenyl)-1-dimethylcarbamoylvinyl]-phenyl}-benzamide]
inhibition at 0.3 µM (TNF-alpha [1]): 40%
inhibition at 3 µM (TNF-alpha [1]): 62%
inhibition at 30 µM (TNF-alpha [1]): 89%

Compound: COc1cc(/C=C(/C(=O)N(C)C)c2ccc(Oc3ccccn3)cc2)cc(OC)c1 [Compound 66, 3-(3,5-dimethoxyphenyl)-N,N-dimethyl-2-[4-(pyridin-2-yloxy)-phenyl]-acrylamide]
inhibition at 0.3 µM (TNF-alpha [1]): 27%
inhibition at 3 µM (TNF-alpha [1]): 53%
inhibition at 30 µM (TNF-alpha [1]): 84%

Compound: CCOC(=O)CCc1ccc(Oc2ccc(/C(=C\c3cc(OC)cc(OC)c3)C(=O)N(C)C)cc2)cc1 [Compound 37, 3-(4-{4-[2-(3,5-dimethoxyphenyl)-1-dimethylcarbamoylvinyl]-phenoxy}-phenyl)-propionic acid ethyl ester]
inhibition at 1 µM (TNF-alpha [1]): 17%
inhibition at 3 µM (TNF-alpha [1]): 38%
inhibition at 10 µM (TNF-alpha [1]): 65%
inhibition at 30 µM (TNF-alpha [1]): 78%

inhibition at 1 µM ([2]; PDE3, 1 μM): 20%
inhibition at 10 µM ([2]; PDE3, 10 μM): 52%
inhibition at 30 µM ([2]; PDE3, 30 μM): 55%
IC50 ([4]; PDE4): < 1 µM
Compound: COc1cc(/C=C(/C(=O)N(C)C)c2ccc(Oc3ccc(CCC(=O)NC(N)=O)cc3)cc2)cc(OC)c1 [Compound 13, 3-(3,5-dimethoxyphenyl)-N,N-dimethyl-2-{4-[4-(3-oxo-3-ureido-propyl)-phenoxy]-phenyl}-acrylamide]
inhibition at 0.3 µM (TNF-alpha [1]): 15%
inhibition at 1 µM (TNF-alpha [1]): 40%
inhibition at 3 µM (TNF-alpha [1]): 70%
inhibition at 10 µM (TNF-alpha [1]): 78%
inhibition at 30 µM (TNF-alpha [1]): 78%
inhibition of LPS-induced phosphorylation of p44/42 MAP kinase (p44/42 MAP kinase; 10 μM): not
inhibition of LPS/IFN-gamma induced phosphorylation of p44/42 (p44/42 MAP kinase; 30 μM and 10 μM, LPS (10 ng/ml)/IFN-gamma (10 U/ml)): inhibited LPS/IFN-gamma induced phosphorylation of p44/42 in a dose-dependent manner
inhibition of LPS-induced phosphorylation of p44/42 MAP kinase (p44/42 MAP kinase; 30 μM): inhibited
O.D. (Mean ± SD) ([3]; 10 μM + anti-CD3/anti-CD28 mAbs, 67 h, MTS/PMS, 505 nm): 0.578 ± 0.012
inhibition at 10 µM ([3]; Mus musculus, Lymphocyte, 10 μM, stimulated by anti-CD3/anti-CD28 monoclonal antibodies): ~50%
Percent Inhibition of Enzyme Activity ([4]; PDE4, 1 μM): 85%
Percent Inhibition of Enzyme Activity ([4]; PDE4, 10 μM): 98%
Percent Inhibition of Enzyme Activity ([4]; PDE4, 30 μM): 102%

Compound: CN(C)C(=O)/C(=C/c1cccnc1)c1ccc(Oc2ccc(CCC(=O)NC(N)=O)cc2)cc1 [Compound 73, N,N-dimethyl-2-{4-[4-(3-oxo-3-ureidopropyl)-phenoxy]-phenyl}-3-pyridin-3-yl-acrylamide]
inhibition at 0.3 µM (TNF-alpha [1]): 30%
inhibition at 3 µM (TNF-alpha [1]): 62%
inhibition at 30 µM (TNF-alpha [1]): 81%

Compound: CCOC(=O)CCc1ccc(Oc2ccc(C(=Cc3ccc4c(c3)OCO4)C(=O)N(C)C)cc2)cc1 [Compound 69, 3-{4-[4-(2-benzo[1,3]dioxol-5-yl-1-dimethylcarbamoylvinyl)-phenoxy]-phenyl}-propionic acid ethyl ester]
inhibition at 0.3 µM (TNF-alpha [1]): 1%
inhibition at 3 µM (TNF-alpha [1]): 22%
inhibition at 30 µM (TNF-alpha [1]): 50%

Compound: COc1cc(/C=C(/C(=O)N2CCCCC2)c2ccc(Oc3ccc(CCC(=O)NC(N)=O)cc3)cc2)cc(OC)c1 [Compound 51, [3-(4-{4-[2-(3,5-dimethoxyphenyl)-1-(piperidine-1-carbonyl)-vinyl]-phenoxy}-phenyl)-propionyl]-urea]
inhibition at 3 µM (TNF-alpha [1]): 25%
inhibition at 10 µM (TNF-alpha [1]): 57%
Cell viability [5]: * (Cell viability <70%)

Compound: COC(=O)C(=Cc1cc(OC)cc(OC)c1)c1ccc(Oc2ccc(CCC(=O)NC(N)=O)cc2)cc1 [Compound 1, 3-(3,5-dimethoxyphenyl)-2-{4-[4-(3-oxo-3-ureidopropyl)-phenoxy]-phenyl}-acrylic acid methyl ester]
inhibition of LPS-induced IL-6 production (IL-6; 10, 30 or 100 μM, FIG. 7): significantly inhibited
inhibitory effect on IL-6 compared with dexamethasone (IL-6; versus 1 μM dexamethasone): greater than that observed with dexamethasone
inhibition of LPS-induced TNF-alpha production (TNF-alpha [6]; 10, 30 or 100 μM, FIG. 5): significantly inhibited
inhibitory effect on TNF-alpha compared with dexamethasone (TNF-alpha [6]; versus 1 μM dexamethasone): approached that seen with dexamethasone
glucose uptake [7]: dose-dependent increase in glucose uptake
free fatty acids lower (ob/ob mice [8]): 19%
serum triglycerides lower (ob/ob mice [8]): 49%
inhibition of COX-1 production (COX-1): not COX-1
inhibition of LPS-induced iNOS production (iNOS): dose-dependent inhibition
inhibition of LPS-induced IL-1 beta production (IL-1 beta; 10, 30 or 100 μM, FIG. 6): significantly inhibited
inhibition of IL-1 beta compared with dexamethasone (IL-1 beta; versus 1 μM dexamethasone): of the same approximate magnitude as that seen with dexamethasone
inhibition of COX-2 production (COX-2): selectively inhibited production of COX-2
decrease in blood glucose levels (ob/ob mice [9]; day 6, versus vehicle): 36%
decrease in blood glucose levels (ob/ob mice [9]; day 8, versus vehicle): 23%
stimulation of glucose uptake by insulin (3T3-L1 adipocytes): enhanced the stimulation of glucose uptake by insulin

Compound: CN(Cc1cnc2nc(N)nc(N)c2n1)c1ccc(C(=O)N[C@@H](CCC(=O)O)C(=O)O)cc1 [Methotrexate, methotrexate, reference compound]
Percent TNF Production (Mean ± SEM) (TNF-alpha [10]; 10 mg/kg oral): 61 ± 5%

Compound: COc1cc(/C=C(/C(=O)N(C)C)c2ccc(Oc3ccc(CCC(N)=O)cc3)cc2)cc(OC)c1 [Compound 31, 2-{4-[4-(2-carbamoylethyl)-phenoxy]-phenyl}-3-(3,5-dimethoxyphenyl)-N,N-dimethylacrylamide]
inhibition at 1 µM (TNF-alpha [1]): 51%
inhibition at 3 µM (TNF-alpha [1]): 73%
inhibition at 10 µM (TNF-alpha [1]): 83%
inhibition at 30 µM (TNF-alpha [1]): 86%
Percent TNF Production (Mean ± SEM) (TNF-alpha [10]; 50 mg/kg oral): 68 ± 11%
Percent TNF Production (Mean ± SEM) (TNF-alpha [10]; 100 mg/kg oral): 53 ± 20%
inhibition of LPS-induced TNF-alpha production in mice (TNF-alpha [10]): significantly inhibited
arthritis clinical score (severity) (DBA/1J mice; [11]): prevented the increase in severity
histology of hind limbs (DBA/1J mice; [11]): reduction in incidence and severity of pannus formation, inflammation cell infiltration and bone/cartilage damage
histology of hind limbs (DBA/1J mice; low dose, 40 mg/kg oral twice daily 14 days): marked chronic inflammation of synovium with pannus formation and destruction of bone and cartilage
arthritis clinical score (severity) (DBA/1J mice; low dose, 40 mg/kg oral twice daily 14 days, compared with vehicle): no apparent effect

Compound: COc1cc(/C=C(/C(=O)N(C)C)c2ccc(O)cc2)cc(OC)c1 [Compound 49, 3-(3,5-dimethoxyphenyl)-2-(4-hydroxyphenyl)-N,N-dimethylacrylamide]
inhibition at 3 µM (TNF-alpha [1]): 14%
inhibition at 10 µM (TNF-alpha [1]): 47%
inhibition at 30 µM (TNF-alpha [1]): 54%

Compound: CN(C)C(=O)/C(=C/c1cccnc1)c1ccc(Oc2ccc(CCC(N)=O)cc2)cc1 [Compound 77, 2-{4-[4-(2-carbamoyl-ethyl)-phenoxy]-phenyl}-N,N-dimethyl-3-pyridin-3-yl-acrylamide]
Percent TNF Production (Mean ± SEM) (TNF-alpha [10]; 50 mg/kg oral): 54 ± 10%
Percent TNF Production (Mean ± SEM) (TNF-alpha [10]; 100 mg/kg oral): 67 ± 20%
inhibition of LPS-induced TNF-alpha production in mice (TNF-alpha [10]): significantly inhibited

Compound: CC(=O)NC(=O)CCc1ccc(Oc2ccc(/C(=C\c3ccc(F)cc3)C(=O)N(C)C)cc2)cc1 [Compound 56, 2-{4-[4-(3-acetylamino-3-oxopropyl)-phenoxy]-phenyl}-3-(4-fluorophenyl)-N,N-dimethylacrylamide]
inhibition at 0.3 µM (TNF-alpha [1]): 1%
inhibition at 3 µM (TNF-alpha [1]): 6%
inhibition at 30 µM (TNF-alpha [1]): 54%

Compound: COc1cc(/C=C(/C(=O)N(C)C)c2ccc(NC(=O)c3cccc(O)c3)cc2)cc(OC)c1 [Compound 44, N-{4-[2-(3,5-dimethoxyphenyl)-1-dimethylcarbamoylvinyl]-phenyl}-3-hydroxybenzamide]
inhibition at 0.3 µM (TNF-alpha [1]): 32%
inhibition at 3 µM (TNF-alpha [1]): 67%
inhibition at 30 µM (TNF-alpha [1]): 91%

Compound: COc1cc(/C=C(/C(=O)N(C)C)c2ccc(Oc3ccc(CC(C(N)=O)C(N)=O)cc3)cc2)cc(OC)c1 [Compound 59, 2-(4-{4-[2-(3,5-dimethoxyphenyl)-1-dimethylcarbamoylvinyl]-phenoxy}-benzyl)-malonamide]
inhibition at 0.3 µM (TNF-alpha [1]): 27%
inhibition at 3 µM (TNF-alpha [1]): 69%
inhibition at 30 µM (TNF-alpha [1]): 80%
